{"source": "paper PMC9961948", "about": "“Interaction of Amphipathic Peptide from Influenza Virus M1 Protein with Mitochondrial Cytochrome Oxidase” (International Journal of Molecular Sciences, 2023)", "target": "T1, cytochrome c oxidase (CcO) purified from heart mitochondria (Bos taurus, UniProt P00396+P07471+P68530)", "T1 construct": "Cytochrome c oxidase was purified from the heart mitochondria of Bos taurus; from tissue; host or cells: bovine heart mitochondria", "experiment": "Cytochrome oxidase activity of solubilized mitochondrial CcO (oxygen uptake)", "assay_type": "biochemical", "settings": "solubilized bovine heart CcO 20 nM; oxygen uptake, Clark electrode, 25 °C; BM 50 mM Hepes/Tris pH 7.6, 50 mM KCl, 1 mM (0.05%) DM; 5 mM ascorbate, 0.1 mM TMPD, 10 μM cytochrome c; fit by Equation (1); read-out: Inhibition of CcO, Solubilized, Ki(app)"}
{"substance": "Ac-STKLWEMLVELGNMDKAVKLWRKLSR-NH2 [A4]", "values": [{"measurement": "Ki", "result": 0.0223, "unit": "mM"}]}
